Test results reported in the Kinase Knowledgebase extract (Sharma et al. 2016).

Key:
PIK3CD (Human) = PIK3CD (Human) (UniProt O00329); assay: Inhibition of PIK3CD Kinase Activity
PIK3CA (human) = PIK3CA (human) (UniProt P42336); assay: Inhibition of PIK3CA Kinase Activity
PIK3CB (Human) = PIK3CB (Human) (UniProt P42338); assay: Inhibition of PIK3CB Kinase Activity
PIK3CG (human) = PIK3CG (human) (UniProt P48736); assay: Inhibition of PIK3CG Kinase Activity
Chain of PIK3CG (human) (P48736 whole entry, looked up): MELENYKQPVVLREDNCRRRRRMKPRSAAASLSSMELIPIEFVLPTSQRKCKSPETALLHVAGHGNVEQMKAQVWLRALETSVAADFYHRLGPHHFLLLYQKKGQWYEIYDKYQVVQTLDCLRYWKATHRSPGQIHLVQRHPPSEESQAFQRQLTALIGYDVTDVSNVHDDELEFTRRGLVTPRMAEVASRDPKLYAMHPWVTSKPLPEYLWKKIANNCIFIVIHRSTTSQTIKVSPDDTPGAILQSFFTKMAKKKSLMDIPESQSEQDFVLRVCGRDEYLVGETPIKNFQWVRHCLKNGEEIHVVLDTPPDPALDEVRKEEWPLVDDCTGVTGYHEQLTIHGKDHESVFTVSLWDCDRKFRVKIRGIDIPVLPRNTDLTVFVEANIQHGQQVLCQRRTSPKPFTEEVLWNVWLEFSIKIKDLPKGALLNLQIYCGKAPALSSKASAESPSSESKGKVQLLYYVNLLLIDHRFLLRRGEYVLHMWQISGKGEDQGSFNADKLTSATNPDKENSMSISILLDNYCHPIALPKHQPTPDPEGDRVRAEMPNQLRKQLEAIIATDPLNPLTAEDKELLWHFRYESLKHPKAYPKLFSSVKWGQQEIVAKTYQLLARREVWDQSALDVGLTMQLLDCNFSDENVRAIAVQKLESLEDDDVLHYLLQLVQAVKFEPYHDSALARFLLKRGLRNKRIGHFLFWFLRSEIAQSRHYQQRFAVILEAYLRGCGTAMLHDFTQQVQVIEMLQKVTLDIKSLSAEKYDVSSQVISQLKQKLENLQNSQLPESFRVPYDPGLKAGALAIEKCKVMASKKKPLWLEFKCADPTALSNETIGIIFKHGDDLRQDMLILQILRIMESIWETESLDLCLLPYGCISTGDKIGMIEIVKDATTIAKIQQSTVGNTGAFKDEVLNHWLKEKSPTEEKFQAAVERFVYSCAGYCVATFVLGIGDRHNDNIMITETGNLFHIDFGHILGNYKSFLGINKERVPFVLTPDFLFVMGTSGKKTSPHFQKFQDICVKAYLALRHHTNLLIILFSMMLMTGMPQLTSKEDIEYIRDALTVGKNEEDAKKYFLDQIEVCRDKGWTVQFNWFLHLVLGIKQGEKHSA

Chain of PIK3CA (human) (P42336 whole entry, looked up): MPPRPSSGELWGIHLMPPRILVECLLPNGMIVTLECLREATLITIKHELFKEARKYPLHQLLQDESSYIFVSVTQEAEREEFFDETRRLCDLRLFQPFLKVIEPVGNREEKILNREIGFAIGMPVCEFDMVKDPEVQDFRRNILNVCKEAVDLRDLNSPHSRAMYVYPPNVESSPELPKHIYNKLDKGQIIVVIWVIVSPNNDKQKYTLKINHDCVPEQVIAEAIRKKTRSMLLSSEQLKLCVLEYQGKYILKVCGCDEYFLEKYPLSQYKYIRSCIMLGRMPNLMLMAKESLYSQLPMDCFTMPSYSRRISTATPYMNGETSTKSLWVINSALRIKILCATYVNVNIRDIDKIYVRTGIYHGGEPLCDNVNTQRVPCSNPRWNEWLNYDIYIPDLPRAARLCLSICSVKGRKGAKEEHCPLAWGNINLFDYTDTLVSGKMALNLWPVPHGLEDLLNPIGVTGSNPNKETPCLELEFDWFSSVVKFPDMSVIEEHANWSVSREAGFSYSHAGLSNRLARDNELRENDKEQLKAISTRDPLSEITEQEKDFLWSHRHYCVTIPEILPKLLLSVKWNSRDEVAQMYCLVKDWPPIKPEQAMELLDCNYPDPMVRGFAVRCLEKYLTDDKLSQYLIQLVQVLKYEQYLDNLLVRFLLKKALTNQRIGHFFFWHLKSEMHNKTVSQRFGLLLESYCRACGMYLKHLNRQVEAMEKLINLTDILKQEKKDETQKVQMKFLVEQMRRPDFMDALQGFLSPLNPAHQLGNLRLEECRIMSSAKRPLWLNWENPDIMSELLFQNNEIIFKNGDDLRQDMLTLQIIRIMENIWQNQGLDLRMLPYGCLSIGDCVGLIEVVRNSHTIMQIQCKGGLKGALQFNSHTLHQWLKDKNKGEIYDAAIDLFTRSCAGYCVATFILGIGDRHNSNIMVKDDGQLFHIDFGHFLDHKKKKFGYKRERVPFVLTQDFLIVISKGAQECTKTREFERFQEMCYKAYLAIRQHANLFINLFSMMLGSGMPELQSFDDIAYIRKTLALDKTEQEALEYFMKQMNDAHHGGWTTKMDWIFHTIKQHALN
Chain of PIK3CB (Human) (P42338 whole entry, looked up): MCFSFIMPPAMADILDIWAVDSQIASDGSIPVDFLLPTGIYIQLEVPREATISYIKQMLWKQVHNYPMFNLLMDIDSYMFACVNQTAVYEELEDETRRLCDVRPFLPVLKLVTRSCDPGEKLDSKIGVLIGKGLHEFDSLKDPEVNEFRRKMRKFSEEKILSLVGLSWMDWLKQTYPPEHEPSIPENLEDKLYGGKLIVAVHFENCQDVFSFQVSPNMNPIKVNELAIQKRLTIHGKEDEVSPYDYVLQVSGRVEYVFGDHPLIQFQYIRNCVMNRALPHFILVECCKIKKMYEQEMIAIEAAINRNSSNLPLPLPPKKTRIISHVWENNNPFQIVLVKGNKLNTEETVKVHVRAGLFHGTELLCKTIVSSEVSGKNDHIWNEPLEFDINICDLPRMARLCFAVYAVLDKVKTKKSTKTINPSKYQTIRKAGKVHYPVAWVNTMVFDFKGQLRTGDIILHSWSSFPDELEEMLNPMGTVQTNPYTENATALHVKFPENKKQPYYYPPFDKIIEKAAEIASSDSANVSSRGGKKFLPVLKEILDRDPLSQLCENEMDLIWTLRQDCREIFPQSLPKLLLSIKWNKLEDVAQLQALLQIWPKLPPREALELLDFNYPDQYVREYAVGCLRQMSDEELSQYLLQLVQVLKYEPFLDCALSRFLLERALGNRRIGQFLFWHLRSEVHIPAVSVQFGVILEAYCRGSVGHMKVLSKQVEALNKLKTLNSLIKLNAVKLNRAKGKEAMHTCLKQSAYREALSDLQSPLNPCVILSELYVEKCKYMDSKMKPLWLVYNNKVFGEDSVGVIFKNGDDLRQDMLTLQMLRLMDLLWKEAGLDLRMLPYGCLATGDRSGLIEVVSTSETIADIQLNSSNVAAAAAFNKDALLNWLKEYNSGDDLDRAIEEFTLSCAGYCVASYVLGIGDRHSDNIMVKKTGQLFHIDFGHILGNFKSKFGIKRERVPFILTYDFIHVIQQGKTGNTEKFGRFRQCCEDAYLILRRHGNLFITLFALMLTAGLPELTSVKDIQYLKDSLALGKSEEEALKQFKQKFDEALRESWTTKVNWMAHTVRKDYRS
Chain of PIK3CD (Human) (O00329 whole entry, looked up): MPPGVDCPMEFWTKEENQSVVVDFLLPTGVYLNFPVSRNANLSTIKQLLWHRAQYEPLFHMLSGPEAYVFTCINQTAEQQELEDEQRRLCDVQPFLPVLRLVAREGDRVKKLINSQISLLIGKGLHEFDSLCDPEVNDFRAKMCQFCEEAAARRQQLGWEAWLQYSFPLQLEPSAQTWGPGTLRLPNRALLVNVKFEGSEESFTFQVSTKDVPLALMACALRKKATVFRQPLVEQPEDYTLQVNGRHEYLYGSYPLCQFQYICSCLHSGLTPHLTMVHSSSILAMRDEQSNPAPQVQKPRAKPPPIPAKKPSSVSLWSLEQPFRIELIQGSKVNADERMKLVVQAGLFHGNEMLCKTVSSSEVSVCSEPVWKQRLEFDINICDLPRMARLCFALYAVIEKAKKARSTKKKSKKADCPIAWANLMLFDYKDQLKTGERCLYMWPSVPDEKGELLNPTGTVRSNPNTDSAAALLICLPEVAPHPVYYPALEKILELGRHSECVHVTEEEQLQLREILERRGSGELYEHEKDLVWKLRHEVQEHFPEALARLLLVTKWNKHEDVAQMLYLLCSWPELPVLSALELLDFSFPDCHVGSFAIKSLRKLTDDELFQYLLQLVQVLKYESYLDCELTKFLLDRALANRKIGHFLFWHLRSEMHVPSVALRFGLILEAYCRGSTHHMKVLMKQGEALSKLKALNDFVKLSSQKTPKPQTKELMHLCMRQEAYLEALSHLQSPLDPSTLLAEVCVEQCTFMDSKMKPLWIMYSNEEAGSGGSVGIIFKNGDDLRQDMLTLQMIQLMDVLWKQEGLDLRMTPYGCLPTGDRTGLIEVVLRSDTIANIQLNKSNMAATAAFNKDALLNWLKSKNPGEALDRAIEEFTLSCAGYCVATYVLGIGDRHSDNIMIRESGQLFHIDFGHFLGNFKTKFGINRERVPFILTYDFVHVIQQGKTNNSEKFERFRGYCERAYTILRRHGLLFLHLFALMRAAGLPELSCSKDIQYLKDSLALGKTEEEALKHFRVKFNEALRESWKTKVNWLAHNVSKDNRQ

Row | IC50 (PIK3CD (Human)) [µM] | IC50 (PIK3CA (human)) [µM] | IC50 (PIK3CB (Human)) [µM] | IC50 (PIK3CG (human)) [µM] | SMILES
1 | 0.309 | 0.059 | 1.37 | – | COc1ccc(-c2ccc3nc(C)c(-c4cccnc4)n3n2)cc1OC
2 | – | 0.925 | – | – | COc1cccc(NC(=O)NCCCOc2ccc(-c3ccc4nc(C)c(-c5cnc(N)c(C(F)(F)F)c5)n4n3)cc2OC)c1
3 | – | 3.69 | – | – | COc1cc(-c2ccc3nc(C)c(-c4cnc(N)c(C(F)(F)F)c4)n3n2)ccc1OCCNC(=O)Nc1cccc(C(F)(F)F)c1
4 | 0.153 | 0.063 | 1.04 | 1.18 | COc1cc(-c2ccc3nc(C)c(-c4cnc(N)c(C(F)(F)F)c4)n3n2)ccc1OC1CCNCC1
5 | – | 3.56 | – | – | COc1cc(-c2ccc3nc(C)c(-c4cnc(N)c(C(F)(F)F)c4)n3n2)ccc1OCCCNC(=O)c1ccc(F)c(F)c1
